Measurements reported in patent publication US11965006B2, “Antimicrobial and anti-cancer therapy” (UNIVERSITY OF PITTSBURGH—OF THE COMMONWEALTH SYSTEM OF …, priority 2016, dated 2024).
Square brackets hold non-standard residues; d marks the D form. Ends that are not written are not given here. Peptide text beside a SMILES is read from it.

What was measured:
[1] = In vivo pulmonary toxicity; design: species or system mouse
Method: Pulmonary toxicity was tested in mouse lung.

Hep2 epithelial cells = test: Hep2 cytopathology in RSV plaque assay; type: cell-based; conditions: 32 μM
Method: Using a standard plaque assay, RSV replication was quantified in permissive Hep2 epithelial cells in the presence or absence of various AMPs. RSV plaque assays were used to determine the minimum dose required to induce Hep2 cytopathology and maximum anti-viral effects. Experimental controls included Hep2 cells+/−RSV and Hep-2 cells with AMP only.
Hep2 control cells without the AMP were also plated. Both plates were infected with the same dilution of A2 RSV virus. There is extensive sloughing of cells treated with the peptide (top plate) as compared to cells which were not (bottom plate), FIG. 18.

[2] = system: Enterococcus faecium MDR clinical isolates; type: cell-based; conditions: Table 3
Method: (§1) The bactericidal activities were examined using standard bacterial culture media (MHB) without the inclusion of human blood.
(§2) Tables 3 and 4 provide the MIC data for the tested AMPs against a variety of infectious species. The following strains were tested: Enterococcus faecium MDR clinical isolates Ef 25153 and Ef 26125; methicillin-resistant Staphylococcus aureus (MRSA) clinical isolates USA300 and 150-10; Klebsiella pneumonia MDR clinical isolates C3, C5, A5, D7 and E6; and Pseudomonas aeruginosa MDR clinical isolates PA 82-8 and PA 129-5. […] Table 5 provides the data for the D-amino acid substituted AMPs and their bactericidal activities against various Klebsiella pneumonia multi-drug resistant (MDR) clinical isolates. All odd number Kp bacteria (isolated prior to colistin treatment; colistin sensitive) are paired with the corresponding even number Kp bacteria (isolated after colistin treatment; colistin resistant) from the same patient. O.D. readings represent the bacterial growth with a background reading of about 0.049+/−0.003.

[3] = system: Klebsiella pneumonia MDR clinical isolates; type: cell-based; conditions: Table 3
Method: as §1, §2

[4] = system: Pseudomonas aeruginosa MDR clinical isolates; type: cell-based; conditions: Table 3
Method: as §1, §2

[5] = system: methicillin-resistant Staphylococcus aureus (MRSA) clinical isolates; type: cell-based; conditions: Table 3
Method: as §1, §2

[6] = In vivo toxicity / maximum tolerated dose; design: species or system Mice (strain: Swiss Webster)
Method: The modified AMPs show a lower toxicity and higher maximum tolerated dosage (MTD) than WLBU2 (SEQ ID No. 26). The MTD for WLBU2 (SEQ ID No. 26) is 15 mg/kg, for Colistin is 10 mg/kg, and SEQ ID No. 15 is 30 mg/kg (FIG. 14A).
Mice (strain: Swiss Webster) were injected with SEQ ID No. 15 peptides intravenously (i.v.) or intraperitoneally (i.p.) at the concentrations indicated. […] Thus, the estimated maximum tolerated dose (MTD) is around 40-50 mpk (i.v.). On a similar setting of testing other AMPS, the MTD for WLBU2 is 15 mpk (i.v.) and 10 mpk (i.v.) for colistin.

[7] = system: primary Human bronchial epithelial (HBE) cells; test: Toxicity to primary cells, tetrazolium-based viability assay; type: cell-based; conditions: treated 2 h
Method: Anti-cancer activity of SEQ ID No. 26 and its D-amino acid modified enantiomer, SEQ ID. No. 34. SEQ ID. No. 34 was compared to SEQ ID No. 26 for selective anti-cancer activities using cancer cell lines of the respiratory system. See FIG. 22A for H460 (large cell lung cancer) and Calu-1 (non-small cell lung cancer) and FIG. 22B for primary Human bronchial epithelial (HBE) cells. The cells were grown to 80% confluence and then treated with each AMP for 2 h. Percent viability was examined using a tetrazolium-based assay assessing the mitochondrial integrity. […] No. 34; however SEQ ID. […] No. 34. Therefore, SEQ ID. […] No. 26.

S.A. ATCC49775 = test: Antimicrobial activity of SPLUNC1 proteins (FIG. 2A); type: cell-based; conditions: S.A. ATCC49775, FIG. 2A
Text: (§3) The AMPs disclosed herein were derived from the naturally secreted antimicrobial protein SPLUNC1. […] FIG. 2C) illustrates the alpha helical structure of alpha4 (A4), the 30 residue sequence used as the template to design the disclosed AMPs listed in Table 2.

MRSA USA300 = test: Antimicrobial activity of SPLUNC1 proteins (FIG. 2B); type: cell-based; conditions: MRSA USA300, FIG. 2B
Text: as §3

In the case of `CC(C)[C@@H](NC(=O)[C@H](Cc1c[nH]c2ccccc12)NC(=O)[C@H](CCCNC(=N)N)NC(=O)[C@H](CCCNC(=N)N)NC(=O)[C@H](NC(=O)[C@H](NC(=O)[C@H](CCCNC(=N)N)NC(=O)[C@H](NC(=O)[C@H](NC(=O)[C@H](CCCNC(=N)N)NC(=O)[C@H](CCCNC(=N)N)NC(=O)[C@H](Cc1c[nH]c2ccccc12)NC(=O)[C@H](NC(=O)[C@H](CCCNC(=N)N)NC(=O)[C@H](CCCNC(=N)N)NC(=O)[C@H](NC(=O)[C@H](CCCNC(=N)N)NC(=O)[C@H](CCCNC(=N)N)NC(=O)[C@H](NC(=O)[C@H](Cc1c[nH]c2ccccc12)NC(=O)[C@H](CCCNC(=N)N)NC(=O)[C@@H](N)CCCNC(=N)N)C(C)C)C(C)C)C(C)C)C(C)C)C(C)C)C(C)C)C(C)C)C(=O)N[C@@H](CCCNC(=N)N)C(=O)N[C@@H](CCCNC(=N)N)C(=O)O` [SEQ ID No. 34] (H-RRW[dV]RR[dV]RR[dV]WRR[dV][dV]R[dV][dV]RRW[dV]RR-OH; N-terminus and C-terminus assumed), the “recruitment of leukocytes (a measure of inflammation)” value ([1]; at four times the concentration of SEQ ID No. 26) is reported as “significantly lower than SEQ ID No. 26”, the “behaviour of mice after treatment” value ([1]; response to the hand grab) is reported as “more active and responsive” and the “cytopathology in Hep2 cells” value (Hep2 epithelial cells) is reported as “caused cytopathology”.

With “RRWVRRVRRVWRRVVRVVRRWVRR [SEQ ID No. 26, reference compound]” the “MIC Ef 25153” value ([2]; isolate Ef 25153) was <4 µM, the “MIC Ef 26125” value ([2]; isolate Ef 26125) was <4 µM and the “MIC A5” value ([3]; isolate A5) was >8 µM. The “MIC C3” value ([3]; isolate C3) was 16 µM, the “MIC C5” value ([3]; isolate C5) was 16 µM and the “MIC D7” value ([3]; isolate D7) was <4 µM. For the same molecule, the “MIC E6” value ([3]; isolate E6) was <4 µM, the “MIC PA 82-8” value ([4]; isolate PA 82-8) was 4 µM and the “MIC PA 129-5” value ([4]; isolate PA 129-5) was <4 µM. For the same molecule, the “MIC MRSA 150-10” value ([5]; isolate 150-10) was 8 µM, the “MIC MRSA USA300” value ([5]; isolate USA300) was <4 µM and the MTD ([6]; Swiss Webster, mouse, in vivo, FIG. 14A, read-out: maximum tolerated dosage (MTD)) was 15 mg/kg. The “maximum tolerated dose (MTD)” value ([6]; i.v., Swiss Webster mice) was 15 mpk, the “cytopathology in Hep2 cells” value (Hep2 epithelial cells) was “caused cytopathology” and the “toxicity to primary HBE cells” value [7] was “toxic to primary HBE cells”.

B1: SPLUNC1-wt: wildtype version of SPLUNC1, a naturally secreted antimicrobial protein (protein, UniProt Q9NP55 20-256, looked up)
BPI fold-containing family A …: QFGGLPVPLDQTLPLNVNPALPLSPTGLAGSLTNALSNGLLSGGLLGILENLPLLDILKPGGGTSGGLLGGLLGKVTSVIPGLNNIIDIKVTDPQLLELGLVQSPDGHRLYVTIPLGIKLQVNTPLVGASLLRLAVKLDITAEILAVRDKQERIHLVLGDCTHSPGSLQISLLDGLGPLPIQGLLDSLTGILNKVLPELVQGNVCPLVNEVLRGLDITLVHDIVNMLIHGLQFVIKV
In the case of B1, the antimicrobial activity (S.A. ATCC49775) is reported as “significant antimicrobial activity” and the antimicrobial activity (MRSA USA300) is reported as “significant antimicrobial activity”.
